Results reported in article PMC9788395, “Cell-Penetrating Peptide–Peptide Nucleic Acid Conjugates as a Tool for Protein Functional Elucidation in the Native Bacterium” (Molecules, 2022).
Non-standard residues stand in square brackets, D forms with d. Residues, ends and D or L forms follow the SMILES beside them. Dab = NCC[C@H](N)C(=O)O

System: Paenibacillus sp. YYML68
Type: cell-based
Conditions: not told
Procedure: Figure S5. Evaluation of (DabFF)3K-FAM permeation into Paenibacillus sp. YYML68. (DabFF)3Dab- […]
FAM permeation was performed at 2 µM concentration in PBS at room temperature (23℃) for 1 h.
Untreated […] strain samples were used as a negative control (NC). Green fluorescence images […]
were captured using the blue wide-excitation mirror unit (U-FBWA; Olympus). Cell integrity was […]
confirmed by bright field (BF) images. Images of (DabFF) 3Dab-FAM permeated cells and the negative […]
controls were captured at similar exposure times to allow for comparison. Scale bar is 5 µm.
Enzymes for Biocatalysis: Sources, Biocatalytic Characteristic and Bioprocesses of Marine […]
Enzymes, Trincone, A., Ed. Woodhead Publishing Limited: Cambridge, 2013; pp 4 29-464.
electrospray ionization mass spectrometry for the characterization of kappa - and iota- […]
carrageenans. Application to the hybrid iota -/nu-carrageenans. Analytical chemistry 2005, 77, […]
Cerezo, A. S.; Erra-Balsells, R.; Matulewicz, M. C., Matrix -assisted laser desorption/ionization time-of-flight (MALDI-TOF) mass spectrometry analysis of oligosaccharides and […]
oligosaccharide alditols obtained by hydrolysis of agaroses and carrageenans, two important […]
types of red seaweed polysaccharides. Carbohydrate research 2010, 345, (2), 275-83.
(1 picture or pasted object on this page, not shown here)

For NCC[C@H](NC(=O)[C@H](Cc1ccccc1)NC(=O)[C@H](Cc1ccccc1)NC(=O)[C@H](CCN)NC(=O)[C@H](Cc1ccccc1)NC(=O)[C@H](Cc1ccccc1)NC(=O)[C@H](CCN)NC(=O)[C@H](Cc1ccccc1)NC(=O)[C@H](Cc1ccccc1)NC(=O)[C@@H](N)CCN)C(=O)O [(DabFF)3Dab] (H-[Dab]FF[Dab]FF[Dab]FF[Dab]-OH), which “Permeation of the membrane of Paenibacillus sp. strain YYML68” value is on record?
The value was “could efficiently and easily permeate the membrane”.
